Experimental data from US20200339625A1, “NOVEL RADIOMETAL-BINDING COMPOUNDS FOR DIAGNOSIS OR TREATMENT OF PROSTATE SPECIFIC MEMBRANE ANTIGEN-EXPRESSING CANCER” (PROVINCIAL HEALTH SERVICES AUTHORITY, priority 2017, published 2020).

Key:
[1] = system: mice bearing PSMA-expressing LNCAP cancer xenografts; experiment: Biodistribution of 68Ga-labeled compounds; type: in vivo
Summary of the method: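 NOD-SCID IL2RγKO male mice carried subcutaneous LNCaP xenografts grown to 5-8 mm over 5-6 weeks. Organs and blood were collected at 1 or 3 h after injection of the radiotracer and gamma-counted. Uptake was normalized to injected dose via a standard curve and expressed as %ID/g.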

[2] = system: mice bearing LNCaP tumor xenografts; experiment: PET/CT imaging of 68Ga-labeled compounds; type: in vivo
Protocol: 2.17 PET/CT Imaging and Biodistribution
Imaging and biodistribution experiments were performed using NODSCID 1L2RyKO male mice. Mice were anesthetized by inhalation with 2% isoflurane in oxygen, and implanted subcutaneously with 1×10^7 LNCaP cells behind left shoulder. Mice were imaged or used in biodistribution studies when the tumor grew up to reach 5-8 mm in diameter during 5-6 weeks.
PET imaging experiments were conducted using Siemens Inveon micro PET/CT scanner. Each tumor bearing mouse was injected 6-8 MBq of 68Ga-labeled tracer through the tail vein under anesthesia (2% isoflurane in oxygen). The mice were allowed to recover and roam freely in their cage. After 50 min, the mice were sedated again with 2% isoflurane in oxygen inhalation and positioned in the scanner. A 10-min CT scan was conducted first for localization and attenuation correction after segmentation for reconstructing the PET images. Then, a 10-min static PET imaging was performed to determined uptake in tumor and other organs. The mice were kept warm by a heating pad during acquisition. For imaging studies acquired at 3 h post-injection (p.i.), the mice were placed in the micro PET/CT scanner at 170 min p.i. Then, the CT acquisitions were conducted as described above, a 15-min static PET imaging was performed to determined uptake in tumor and other organs.

O=C([O-])CN1CCN(CC(=O)[O-])CCN(CC(=O)NCCCC[C@H](NC(=O)CNC(=O)CCCc2ccc(Br)cc2)C(=O)NC[C@H]2CC[C@H](C(=O)N[C@@H](Cc3ccc4ccccc4c3)C(=O)NCCCC[C@H](NC(=O)N[C@@H](CCC(=O)O)C(=O)O)C(=O)O)CC2)CCN(CC(=O)[O-])CC1.[68Ga+3] [^68Ga-HTK03058]
Adrenal glands uptake ([1]; 1 h post-injection): 4.20 ± 1.21 % ID/g
Blood uptake ([1]; 1 h post-injection): 26.7 ± 3.02 % ID/g
Bone uptake ([1]; 1 h post-injection): 1.04 ± 0.26 % ID/g
Brain uptake ([1]; 1 h post-injection): 0.36 ± 0.06 % ID/g
Fat uptake ([1]; 1 h post-injection): 2.13 ± 0.57 % ID/g
Heart uptake ([1]; 1 h post-injection): 6.09 ± 0.97 % ID/g
Intestine uptake ([1]; 1 h post-injection): 1.64 ± 0.27 % ID/g
Kidneys uptake ([1]; 1 h post-injection): 14.7 ± 2.13 % ID/g
Lacrimal uptake ([1]; 1 h post-injection): 0.69 ± 0.26 % ID/g
Liver uptake ([1]; 1 h post-injection): 3.87 ± 1.00 % ID/g
Lungs uptake ([1]; 1 h post-injection): 10.2 ± 2.20 % ID/g
Muscle uptake ([1]; 1 h post-injection): 1.37 ± 0.17 % ID/g
Pancreas uptake ([1]; 1 h post-injection): 2.00 ± 0.17 % ID/g
Salivary uptake ([1]; 1 h post-injection): 3.90 ± 0.70 % ID/g
Seminal uptake ([1]; 1 h post-injection): 1.31 ± 0.38 % ID/g
Spleen uptake ([1]; 1 h post-injection): 3.13 ± 1.05 % ID/g
Stomach uptake ([1]; 1 h post-injection): 0.58 ± 0.20 % ID/g
Tail uptake ([1]; 1 h post-injection): 8.87 ± 4.26 % ID/g
Testes uptake ([1]; 1 h post-injection): 2.74 ± 0.38 % ID/g
Thyroid uptake ([1]; 1 h post-injection): 4.95 ± 0.79 % ID/g
Tumor uptake ([1]; 1 h post-injection): 11.2 ± 3.33 % ID/g
Tumor:Blood ratio ([1]; 1 h post-injection): 0.42 ± 0.11
Tumor:Muscle ratio ([1]; 1 h post-injection): 8.04 ± 1.69
Tumor:kidney ratio ([1]; 1 h post-injection): 0.75 ± 0.17
Urine uptake ([1]; 1 h post-injection): 3.97 ± 2.56 % ID/g
Adrenal glands uptake ([1]; 3 h post-injection): 4.46 ± 1.42 % ID/g
Blood uptake ([1]; 3 h post-injection): 21.2 ± 2.21 % ID/g
Bone uptake ([1]; 3 h post-injection): 1.54 ± 0.36 % ID/g
Brain uptake ([1]; 3 h post-injection): 0.30 ± 0.06 % ID/g
Fat uptake ([1]; 3 h post-injection): 2.47 ± 1.61 % ID/g
Heart uptake ([1]; 3 h post-injection): 4.85 ± 0.67 % ID/g
Intestine uptake ([1]; 3 h post-injection): 1.63 ± 0.18 % ID/g
Kidneys uptake ([1]; 3 h post-injection): 17.5 ± 3.83 % ID/g
Lacrimal uptake ([1]; 3 h post-injection): 1.44 ± 0.37 % ID/g
Liver uptake ([1]; 3 h post-injection): 2.80 ± 0.46 % ID/g
Lungs uptake ([1]; 3 h post-injection): 8.21 ± 1.21 % ID/g
Muscle uptake ([1]; 3 h post-injection): 1.33 ± 0.24 % ID/g
Pancreas uptake ([1]; 3 h post-injection): 1.96 ± 0.20 % ID/g
Salivary uptake ([1]; 3 h post-injection): 3.45 ± 0.40 % ID/g
Seminal uptake ([1]; 3 h post-injection): 1.15 ± 0.16 % ID/g
Spleen uptake ([1]; 3 h post-injection): 2.11 ± 0.44 % ID/g
Stomach uptake ([1]; 3 h post-injection): 0.79 ± 0.23 % ID/g
Tail uptake ([1]; 3 h post-injection): 6.86 ± 2.42 % ID/g
Testes uptake ([1]; 3 h post-injection): 3.02 ± 0.80 % ID/g
Thyroid uptake ([1]; 3 h post-injection): 3.72 ± 0.33 % ID/g
Tumor uptake ([1]; 3 h post-injection): 14.2 ± 1.99 % ID/g
Tumor:Blood ratio ([1]; 3 h post-injection): 0.67 ± 0.07
Tumor:Muscle ratio ([1]; 3 h post-injection): 10.8 ± 1.56
Tumor:kidney ratio ([1]; 3 h post-injection): 0.83 ± 0.11
Urine uptake ([1]; 3 h post-injection): 6.15 ± 3.78 % ID/g
change of tumor uptake from 1 h to 3 h post-injection ([2]; PET/CT images): uptake in tumors increases over time
blood retention (qualitative) ([2]; PET/CT images at 1 h and 3 h post-injection, comparison within the figure): some extent of blood retention

O=C([O-])CN1CCN(CC(=O)[O-])CCN(CC(=O)NCCCC[C@H](NC(=O)CNC(=O)CCc2ccccc2)C(=O)NC[C@H]2CC[C@H](C(=O)N[C@@H](Cc3ccc4ccccc4c3)C(=O)NCCCC[C@H](NC(=O)N[C@@H](CCC(=O)O)C(=O)O)C(=O)O)CC2)CCN(CC(=O)[O-])CC1.[68Ga+3] [^68Ga-HTK03082]
Adrenal glands uptake ([1]; 1 h post-injection): 2.19 ± 0.76 % ID/g
Blood uptake ([1]; 1 h post-injection): 1.37 ± 0.23 % ID/g
Bone uptake ([1]; 1 h post-injection): 0.15 ± 0.06 % ID/g
Brain uptake ([1]; 1 h post-injection): 0.03 ± 0.01 % ID/g
Fat uptake ([1]; 1 h post-injection): 0.61 ± 0.09 % ID/g
Heart uptake ([1]; 1 h post-injection): 0.40 ± 0.07 % ID/g
Intestine uptake ([1]; 1 h post-injection): 0.33 ± 0.07 % ID/g
Kidneys uptake ([1]; 1 h post-injection): 81.6 ± 12.6 % ID/g
Lacrimal uptake ([1]; 1 h post-injection): 0.08 ± 0.03 % ID/g
Liver uptake ([1]; 1 h post-injection): 0.39 ± 0.09 % ID/g
Lungs uptake ([1]; 1 h post-injection): 1.39 ± 0.27 % ID/g
Muscle uptake ([1]; 1 h post-injection): 0.33 ± 0.15 % ID/g
Pancreas uptake ([1]; 1 h post-injection): 0.47 ± 0.26 % ID/g
Salivary uptake ([1]; 1 h post-injection): 1.17 ± 0.27 % ID/g
Seminal uptake ([1]; 1 h post-injection): 0.81 ± 0.94 % ID/g
Spleen uptake ([1]; 1 h post-injection): 1.12 ± 0.19 % ID/g
Stomach uptake ([1]; 1 h post-injection): 0.10 ± 0.03 % ID/g
Tail uptake ([1]; 1 h post-injection): 0.84 ± 0.14 % ID/g
Testes uptake ([1]; 1 h post-injection): 0.42 ± 0.05 % ID/g
Thyroid uptake ([1]; 1 h post-injection): 0.58 ± 0.11 % ID/g
Tumor uptake ([1]; 1 h post-injection): 13.6 ± 2.16 % ID/g
Tumor:Blood ratio ([1]; 1 h post-injection): 10.1 ± 1.91
Tumor:Muscle ratio ([1]; 1 h post-injection): 49.2 ± 24.2
Tumor:kidney ratio ([1]; 1 h post-injection): 0.17 ± 0.02
Urine uptake ([1]; 1 h post-injection): 349 ± 209 % ID/g
Adrenal glands uptake ([1]; 3 h post-injection): 0.38 ± 0.06 % ID/g
Blood uptake ([1]; 3 h post-injection): 0.25 ± 0.04 % ID/g
Bone uptake ([1]; 3 h post-injection): 0.01 ± 0.01 % ID/g
Brain uptake ([1]; 3 h post-injection): 0.01 ± 0.00 % ID/g
Fat uptake ([1]; 3 h post-injection): 0.21 ± 0.01 % ID/g
Heart uptake ([1]; 3 h post-injection): 0.07 ± 0.02 % ID/g
Intestine uptake ([1]; 3 h post-injection): 0.19 ± 0.02 % ID/g
Kidneys uptake ([1]; 3 h post-injection): 22.3 ± 9.97 % ID/g
Lacrimal uptake ([1]; 3 h post-injection): 0.01 ± 0.01 % ID/g
Liver uptake ([1]; 3 h post-injection): 0.17 ± 0.02 % ID/g
Lungs uptake ([1]; 3 h post-injection): 0.28 ± 0.07 % ID/g
Muscle uptake ([1]; 3 h post-injection): 0.11 ± 0.11 % ID/g
Pancreas uptake ([1]; 3 h post-injection): 0.09 ± 0.03 % ID/g
Salivary uptake ([1]; 3 h post-injection): 0.20 ± 0.07 % ID/g
Seminal uptake ([1]; 3 h post-injection): 0.12 ± 0.08 % ID/g
Spleen uptake ([1]; 3 h post-injection): 0.24 ± 0.08 % ID/g
Stomach uptake ([1]; 3 h post-injection): 0.05 ± 0.01 % ID/g
Tail uptake ([1]; 3 h post-injection): 0.24 ± 0.14 % ID/g
Testes uptake ([1]; 3 h post-injection): 0.13 ± 0.08 % ID/g
Thyroid uptake ([1]; 3 h post-injection): 0.16 ± 0.09 % ID/g
Tumor uptake ([1]; 3 h post-injection): 14.5 ± 2.12 % ID/g
Tumor:Blood ratio ([1]; 3 h post-injection): 58.1 ± 12.6
Tumor:Muscle ratio ([1]; 3 h post-injection): 223 ± 122
Tumor:kidney ratio ([1]; 3 h post-injection): 1.12 ± 1.30
Urine uptake ([1]; 3 h post-injection): 191 ± 83.1 % ID/g
excretion pathway ([2]; PET/CT images): excreted mainly by the renal pathway
